This note sets out measurements from PubChem BioAssay AID743181 (NMMLSC, 2013).

Active and inactive are the calls of the source.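 How the source made its calls: active means at least 15% GFP+ cells at the top dose together with an EC50 below 10 µM; inactive means the rest.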

In one test the test system is HOXA9-ER marrow cells, lysozyme-GFP differentiation, flow. The test can be described thus: lysozyme-GFP induction in HOXA9-ER cells – HOXA9-ER marrow cells, GFP flow, set 1, SAR follow-up (AID 743181).
Conditions: not given
Turning to `O=C(CCNC(=O)c1ccc(OC(F)(F)F)cc1)N[C@@H]1CCCc2ccccc21`, the EC50 (usually the concentration that produces a half-maximal response) was 1.61 µM. As for `O=C(CCNC(=O)c1ccc(Cl)cc1)NC1CCCc2ccccc21` (stereo not given), the EC50 was 5.06 µM. With `O=C(O)c1cccnc1Nc1ccc(Cl)cc1`, the EC50 is 5.4 µM. The same measure, in the same setting: as for `O=C(CCNC(=O)c1ccc(Cl)cc1)N[C@@H]1CCc2ccccc21`, the figure is 9.97 µM; as for `O=C(CCNC(=O)c1ccc(Cl)cc1)N[C@@H]1CCCc2ccccc21`, 3.47 µM; as for `O=C(CCNC(=O)c1cccc(Cl)c1)N[C@@H]1CCCc2ccccc21`, 5.42 µM. Take `O=C(CCNC(=O)c1ccc(C(F)(F)F)cc1)N[C@@H]1CCCc2ccccc21`: the EC50 is 2.63 µM. Still for that read-out and setting: as for `Cc1ccc(C(=O)NCCC(=O)N[C@@H]2CCCc3ccccc32)cc1`, the figure is 8.68 µM; as for `COc1ccc(C(=O)NCCC(=O)N[C@@H]2CCCc3ccccc32)cc1`, 4.95 µM; as for `O=C(CCNC(=O)c1ccc2c(c1)OC(F)(F)O2)N[C@@H]1CCCc2ccccc21`, 4.69 µM. On to `O=C(CCNC(=O)c1ccc(Cl)c(Cl)c1)N[C@@H]1CCCc2ccccc21`, for which the EC50 was 3.24 µM.

System in the next test: not listed separately
The description is as above. Conditions: HOXA9-ER marrow cells, lysozyme-GFP differentiation, flow; at 10 µM (top of the series).
`NCCC(=O)N[C@@H]1CCCc2ccccc21`: the GFP+ cells, differentiation was 1% (inactive).

Take `N#Cc1ccc(C(=O)NCCC(=O)N[C@@H]2CCCc3ccccc32)cc1`: the GFP+ cells, differentiation is 16% (inactive). `O=C(CCNC(=O)c1ccccc1)N[C@@H]1CCCc2ccccc21`: the GFP+ cells, differentiation is 3% (inactive).

Turning to `Cc1cccc(C(=O)NCCC(=O)NC2CCCc3ccccc32)c1` (stereo not given), the GFP+ cells, differentiation is 1% (inactive). Turning to `O=C(CNC(=O)c1ccc(Cl)cc1)N[C@@H]1CCCc2ccccc21`, the GFP+ cells, differentiation was 4% (inactive). Consider `O=C(Cc1ccc(Cl)cc1)NCCC(=O)N[C@@H]1CCCc2ccccc21`, for which the GFP+ cells, differentiation was 16% (inactive).

Take `CC(=O)NCCC(=O)N[C@@H]1CCCc2ccccc21`: the GFP+ cells, differentiation is 0% (inactive). On to `CC(NC(=O)CCNC(=O)c1ccc(Cl)cc1)c1ccc(F)cc1` (stereo not given), for which the GFP+ cells, differentiation is 1% (inactive). As for `Cc1ccc(C)c(OCCn2cc(C(=O)O)c3ccccc32)c1`, the GFP+ cells, differentiation was 0% (inactive).

Regarding `O=C(CNC(=O)c1ccc(C(F)(F)F)cc1)N[C@@H]1CCCc2ccccc21`, the GFP+ cells, differentiation was 1% (inactive). On to `COc1ccccc1C(C)NC(=O)CCNC(=O)c1ccc(Cl)cc1` (stereo not given), for which the GFP+ cells, differentiation was 0% (inactive).

In the case of `O=C(CCCNC(=O)c1ccc(OC(F)(F)F)cc1)N[C@@H]1CCCc2ccccc21`, the GFP+ cells, differentiation is 1% (inactive).

`CC(NC(=O)C1CCCN(C(=O)c2ccc(Cl)cc2)C1)c1ccccc1` (stereo not given): the GFP+ cells, differentiation was 0% (inactive).

As to `O=C(CNC(=O)c1ccc(OC(F)(F)F)cc1)N[C@@H]1CCCc2ccccc21`, the GFP+ cells, differentiation was 1% (inactive). On to `CC(C)(C)OC(=O)NCCC(=O)N[C@H]1CCCc2ccccc21`, for which the GFP+ cells, differentiation was 1% (inactive). On the same count and under the same terms, as for `O=C(CCNC(=O)c1ccc(F)cc1)N[C@@H]1CCCc2ccccc21`, the figure is 12% (inactive). Same read-out and setting: as for `O=C(CNC(=O)c1ccc(Cl)c(Cl)c1)N[C@@H]1CCCc2ccccc21`, the figure is 2% (inactive); as for `O=C(O)c1ccccc1OCc1ccccc1Br`, 1% (inactive); as for `CC(c1ccccc1)N(C)C(=O)CCNC(=O)c1ccc(Cl)cc1` (stereo not given), 0% (inactive).

Turning to `O=C(CCNC(=O)c1ccc(Cl)cc1)NC1CCCCC1`, the GFP+ cells, differentiation was 1% (inactive). The same measure, in the same setting: as for `O=C(NC1CCc2ccccc21)C1CCCN(C(=O)c2ccc(Cl)cc2)C1` (stereo not given), the figure is 1% (inactive); as for `O=C(CCCNC(=O)c1ccc(Cl)c(Cl)c1)N[C@@H]1CCCc2ccccc21`, 1% (inactive). As for `O=C(NC1CCOc2ccccc21)C1CCCN(C(=O)c2ccc(Cl)cc2)C1` (stereo not given), the GFP+ cells, differentiation was 1% (inactive). Same read-out and setting: as for `CC(C)(C)OC(=O)NCCC(=O)N[C@@H]1CCCc2ccccc21`, the figure is 1% (inactive); as for `O=C(CCNC(=O)c1ccc(Cl)cc1)N[C@H]1CCCc2ccccc21`, 1% (inactive); as for `CC(NC(=O)CCNC(=O)c1ccc(Cl)cc1)c1ccc2c(c1)OCO2` (stereo not given), 0% (inactive). Still for that read-out and setting: as for `O=C(CCCNC(=O)c1ccc(Cl)cc1)N[C@@H]1CCCc2ccccc21`, the figure is 2% (inactive); as for `C[C@@H](NC(=O)CCNC(=O)c1ccc(Cl)cc1)c1ccccc1`, 1% (inactive). Same read-out and setting: as for `O=C(CCCNC(=O)c1ccc(C(F)(F)F)cc1)N[C@@H]1CCCc2ccccc21`, the figure is 1% (inactive).
